Data: the supplement of paper PMC11208160

Assay: recombinant UMI read abundance after kanamycin selection (control-corrected) (log10(CPM+1)); higher = more efficient recombination; extreme values may be limits of the assay; sequences stand for … in AGTGCAGAGAAAATCGGCCAGTTTTCTCTGCCTGCAGTCCGCATGCCGTGGGACCCCTTGGGTTCTAACCTGTTGCCTAGATTTATGCAGCGGACTGCCTTTCTCCCAAAGTGATAAACCGG…AGGTTGGTTTCACT; site = the 11-nt donor
Procedure, shortened: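 Under IPTG (0.07 mM) plus kanamycin, or without selection, Escherichia coli carrying a UMI-tagged donor and donor-binding-loop pair library and a target plasmid for the IS621 bridge recombinase were plated in two replicates. Recombinant UMIs were PCR-amplified across the donor–target junction and sequenced. Counts were converted to CPM, averaged over replicates, scaled by control-derived factors and reported as log10(CPM+1).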
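Further: IS621 bridge recombinase in Escherichia coli cells against a fixed T5 target plasmid.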

Sequence | recombinant UMI read abundance (log10)
TCACGTCCATGGACCGGTTTTCCCGGTAATCCGTATTTGGC (site TCACGTCCTGC) | 0
TCAGACTCATGGACCGGTTTTCCCGGTAATCCGTATTTGCA (site TCAAACTCTTG) | 0.771
TCAGACTCATGGACCGGTTTTCCCGGTAATCCGTATTTGCA (site TCACACTCTTG) | 1.19
TCAGACTCATGGACCGGTTTTCCCGGTAATCCGTATTTGCA (site TCAGACTCTTG) | 2.95
TCAGACTCATGGACCGGTTTTCCCGGTAATCCGTATTTGCA (site TCATACTCTTG) | 0.807
TCAGATACATGGACCGGTTTTCCCGGTAATCCGTATTTGGC (site TCAGATACTGC) | 0
TCAGCATCATGGACCGGTTTTCCCGGTAATCCGTATTTGCA (site ACAGTATCTTG) | 0.8
TCAGCATCATGGACCGGTTTTCCCGGTAATCCGTATTTGCA (site TCAGCATCTTG) | 0.224
TCAGCCTCATGGACCGGTTTTCCCGGTAATCCGTATTTGAT (site TCAGCCTCTAT) | 1.36
TCAGCGACATGGACCGGTTTTCCCGGTAATCCGTATTTGCG (site TCAGAGACTCG) | 0.00361
TCAGCGACATGGACCGGTTTTCCCGGTAATCCGTATTTGCG (site TCAGCGACTCG) | 1.37
TCAGCGACATGGACCGGTTTTCCCGGTAATCCGTATTTGCG (site TCAGGGACTCG) | 0.0187
TCAGCGACATGGACCGGTTTTCCCGGTAATCCGTATTTGCG (site TCAGTGACTCG) | 0.00864
TCAGCTGCATGGACCGGTTTTCCCGGTAATCCGTATTTGTG (site TAAGCTGCTCA) | 0.0147
TCAGCTGCATGGACCGGTTTTCCCGGTAATCCGTATTTGTG (site TCAGCTGCTCA) | 0.637
TCAGCTGCATGGACCGGTTTTCCCGGTAATCCGTATTTGTG (site TGAGCTGCTCA) | 0.00568
TCAGCTGCATGGACCGGTTTTCCCGGTAATCCGTATTTGTG (site TTAGCTGCTCA) | 0.0047
TCAGGCACATGGACCGGTTTTCCCGGTAATCCGTATTTGGC (site TCAGGCACTGC) | 0.89
TCAGGGACATGGACCGGTTTTCCCGGTAATCCGTATTTGCG (site TCAGAGACTCG) | 0.74
TCAGGGACATGGACCGGTTTTCCCGGTAATCCGTATTTGCG (site TCAGCGACTCG) | 0.0114
TCAGGGACATGGACCGGTTTTCCCGGTAATCCGTATTTGCG (site TCAGGGACTCG) | 1.03
TCAGGGACATGGACCGGTTTTCCCGGTAATCCGTATTTGCG (site TCAGTGACTCG) | 0.0229
TCAGTAACATGGACCGGTTTTCCCGGTAATCCGTATTTGTA (site TCAGTAACTTA) | 1.71
TCAGTAGCATGGACCGGTTTTCCCGGTAATCCGTATTTGGC (site TCAGTAGCTGC) | 1.54
TCAGTTCCATGGACCGGTTTTCCCGGTAATCCGTATTTGAA (site TCAGTTCCTTT) | 0.398

Sequence | recombinant UMI read abundance (log10)
TCAGTTTCATGGACCGGTTTTCCCGGTAATCCGTATTTGCA (site ACAGTATCTTG) | 0.0288
TCAGTTTCATGGACCGGTTTTCCCGGTAATCCGTATTTGCA (site TCAGTTTCTTG) | 1.14
TCATACACATGGACCGGTTTTCCCGGTAATCCGTATTTGCA (site TCATACACTTG) | 2.45
TCATACACATGGACCGGTTTTCCCGGTAATCCGTATTTGCA (site TCATACCCTTG) | 0.302
TCATACACATGGACCGGTTTTCCCGGTAATCCGTATTTGCA (site TCATACGCTTG) | 1.36
TCATACACATGGACCGGTTTTCCCGGTAATCCGTATTTGCA (site TCATACTCTTG) | 1.5
TCATACCCATGGACCGGTTTTCCCGGTAATCCGTATTTGTG (site TCATACCCTCA) | 0
TCATACTCATGGACCGGTTTTCCCGGTAATCCGTATTTGGA (site TCATACTCTTA) | 0.26
TCATACTCATGGACCGGTTTTCCCGGTAATCCGTATTTGGA (site TCATACTCTTC) | 1.76
TCATACTCATGGACCGGTTTTCCCGGTAATCCGTATTTGGA (site TCATACTCTTG) | 0
TCATACTCATGGACCGGTTTTCCCGGTAATCCGTATTTGGA (site TCATACTCTTT) | 1.17
TCATACTCATGGACCGGTTTTCCCGGTAATCCGTATTTGTA (site TCATACTCTTA) | 1.51
TCATACTCATGGACCGGTTTTCCCGGTAATCCGTATTTGTA (site TCATACTCTTC) | 0.00471
TCATACTCATGGACCGGTTTTCCCGGTAATCCGTATTTGTA (site TCATACTCTTG) | 0
TCATACTCATGGACCGGTTTTCCCGGTAATCCGTATTTGTA (site TCATACTCTTT) | 0.299
TCATAGACATGGACCGGTTTTCCCGGTAATCCGTATTTGAC (site TCATAGACTGT) | 0.421
TCATAGGCATGGACCGGTTTTCCCGGTAATCCGTATTTGTT (site TCATAGGCTAA) | 1.27
TCATAGTCATGGACCGGTTTTCCCGGTAATCCGTATTTGCA (site TCATAATCTTG) | 2.41
TCATAGTCATGGACCGGTTTTCCCGGTAATCCGTATTTGCA (site TCATACTCTTG) | 0.653
TCATAGTCATGGACCGGTTTTCCCGGTAATCCGTATTTGCA (site TCATAGTCTTG) | 2.25
TCATAGTCATGGACCGGTTTTCCCGGTAATCCGTATTTGCA (site TCATATTCTTG) | 0
TCATCCTCATGGACCGGTTTTCCCGGTAATCCGTATTTGAA (site TCATCCTCTTT) | 1.05
TCATCGTCATGGACCGGTTTTCCCGGTAATCCGTATTTGAA (site TCATCGTCTTT) | 0.467
TCATGCCCATGGACCGGTTTTCCCGGTAATCCGTATTTGGC (site TCATGCCCTGC) | 0
TCATTATCATGGACCGGTTTTCCCGGTAATCCGTATTTGCA (site TCATTATCTTG) | 1.7

Sequence | recombinant UMI read abundance (log10)
TCATTCTCATGGACCGGTTTTCCCGGTAATCCGTATTTGCT (site TCATTCTCTAG) | 0.981
TCATTGCCATGGACCGGTTTTCCCGGTAATCCGTATTTGAG (site TCATTGCCTCT) | 0.00408
TCATTTACATGGACCGGTTTTCCCGGTAATCCGTATTTGGA (site TCATTTACTTC) | 0.164
TCCAATACATGGACCGGTTTTCCCGGTAATCCGTATTTGCC (site TCCAATACTGG) | 0
TCCAATACATGGACCGGTTTTCCCGGTAATCCGTATTTGCC (site TCCAATCCTGG) | 0
TCCAATACATGGACCGGTTTTCCCGGTAATCCGTATTTGCC (site TCCAATGCTGG) | 0
TCCAATACATGGACCGGTTTTCCCGGTAATCCGTATTTGCC (site TCCAATTCTGG) | 0
TCCAATCCATGGACCGGTTTTCCCGGTAATCCGTATTTGCC (site TCCAATACTGG) | 0
TCCAATCCATGGACCGGTTTTCCCGGTAATCCGTATTTGCC (site TCCAATCCTGG) | 0
TCCAATCCATGGACCGGTTTTCCCGGTAATCCGTATTTGCC (site TCCAATGCTGG) | 0
TCCAATCCATGGACCGGTTTTCCCGGTAATCCGTATTTGCC (site TCCAATTCTGG) | 0
TCCAATTCATGGACCGGTTTTCCCGGTAATCCGTATTTGGC (site TCCAATTCTGA) | 0
TCCAATTCATGGACCGGTTTTCCCGGTAATCCGTATTTGGC (site TCCAATTCTGC) | 0
TCCAATTCATGGACCGGTTTTCCCGGTAATCCGTATTTGGC (site TCCAATTCTGG) | 0
TCCAATTCATGGACCGGTTTTCCCGGTAATCCGTATTTGGC (site TCCAATTCTGT) | 0
TCCACCGCATGGACCGGTTTTCCCGGTAATCCGTATTTGCT (site TCCACCGCTAG) | 0
TCCACCGCATGGACCGGTTTTCCCGGTAATCCGTATTTGCT (site TCCACCGCTCG) | 0.0171
TCCACCGCATGGACCGGTTTTCCCGGTAATCCGTATTTGCT (site TCCACCGCTGG) | 0
TCCACCGCATGGACCGGTTTTCCCGGTAATCCGTATTTGCT (site TCCACCGCTTG) | 0
TCCACGCCATGGACCGGTTTTCCCGGTAATCCGTATTTGCC (site TCCACGCCTGG) | 0
TCCACTTCATGGACCGGTTTTCCCGGTAATCCGTATTTGAG (site TCCACTTCTCT) | 0.0133
TCCAGTGCATGGACCGGTTTTCCCGGTAATCCGTATTTGGT (site TCCAGTGCTAC) | 0.00561
TCCATAGCATGGACCGGTTTTCCCGGTAATCCGTATTTGTA (site TCCATAGCTTA) | 0.0478
TCCATTTCATGGACCGGTTTTCCCGGTAATCCGTATTTGCC (site TCCAATTCTGG) | 0
TCCATTTCATGGACCGGTTTTCCCGGTAATCCGTATTTGCC (site TCCACTTCTGG) | 0
